Measured values published in BigSolDB 2.1.

CNC[C@H](O)[C@@H](O)[C@H](O)[C@H](O)CO.Cc1c(Nc2ncccc2C(=O)O)cccc1C(F)(F)F
solubility (mole fraction)
Details | 283.15 K | 288.15 K | 293.15 K | 298.15 K | 303.15 K | 308.15 K | 313.15 K | 318.15 K | 323.15 K | 328.15 K
in acetone | 0.00077 | 0.000937 | 0.00119 | 0.00158 | 0.00215 | 0.00275 | 0.00354 | 0.0048 | 0.00698 | 0.0104
in acetonitrile | 3.16e-05 | 3.86e-05 | 4.58e-05 | 6.88e-05 | 0.000109 | 0.000173 | 0.00025 | 0.00035 | 0.000517 | 0.000733
in ethanol | 0.00285 | 0.00353 | 0.00448 | 0.00576 | 0.00775 | 0.0113 | 0.0162 | 0.0228 | 0.0345 | 0.0502
in isopropanol | 0.000626 | 0.000759 | 0.000924 | 0.00118 | 0.00162 | 0.00198 | 0.00299 | 0.00433 | 0.00642 | 0.00934
in methanol | 0.0202 | 0.024 | 0.0293 | 0.0349 | 0.0448 | 0.0547 | 0.0652 | 0.08 | 0.0934 | 0.111
in water | 0.00738 | 0.00886 | 0.0111 | 0.0151 | 0.021 | 0.0286 | 0.0382 | 0.0504 | 0.0633 | 0.0807
